Among the data in patent US20090312310A1 (priority 2006, published 2009) are GI50 and IC50 values, retold here.

The test system of assay [1] is human lung cancer-derived cell line NCI-H460 having wild-type p53. In words: Cell growth inhibition assay (MTT), NCI-H460. The assay is classed as cell-based. The conditions noted are these: 72 hours. Here is the method:
(§1) An anti-cell test was conducted using two cells (human lung cancer-derived cell line NCI-H460 having wild-type p53 and human colon cancer-derived cell line DLD-1 having mutant p53).
(§2) Cells of the respective cell lines were suspended in a medium (RPMI1640 medium containing 10% fetal bovine serum) and these suspensions were inoculated in amounts of 500 cells/150 μL/well and 1000 cells/150 μL/well, respectively, to a 96-well multiwell plate. A test compound was dissolved in DMSO and this solution was diluted with medium to prepare a sample solution (DMSO concentration: 1% or lower). On the next day of inoculation, medium containing DMSO nonsupplemented with the test compound (hereinafter, referred to as a DMSO dilution, DMSO concentration: 1% or lower) or the sample solution was added in an amount of 50 μL/well. MTT assay was conducted immediately after addition of the sample solution or the DMSO dilution to the cells and after culture of the cells (after addition of the sample solution or the DMSO dilution) at 37° C. for 72 hours in a 5% CO2 atmosphere. The MTT assay was conducted as shown below.
(§3) A 5 mg/mL MTT (3-(4,5-dimethylthiazol-2-yl)-2,5-diphenyltetrazolium bromide, Sigma-Aldrich Co., M-2128) solution was prepared using phosphate buffer solutions (Dulbecco's Phosphate-buffered Salines). This MTT solution was added in an amount of 20 μL/well. Then, the plate was cultured at 37° C. for 4 hours in a 5% CO2 atmosphere. The plate was centrifuged at 1200 rpm for 5 minutes and then the culture supernatant was removed by aspiration using a dispenser. DMSO was added in an amount of 150 μL/well to dissolve generated formazan. […] The absorbance of each well was measured under conditions of OD 540 nm and reference 660 nm using a plate reader (SpectraMax PLUS384, Molecular Devices, CA, USA).
(§4) The OD value measured immediately after addition of the sample solution was defined as S. The OD value measured 72 hours after addition of the sample solution was defined as T. The OD value measured 72 hours after addition of the DMSO dilution was defined as C. […]

For assay [2], the system named is human colon cancer-derived cell line DLD-1 having mutant p53. Nature of the assay: Cell growth inhibition assay (MTT), DLD-1. It is filed as cell-based. The conditions noted are these: DLD-1 (mutant p53), 72 hours. Here is the method:
as §1, §2, §3, §4

The next assay deals with T1, Mdm2/p53 binding (Homo sapiens, UniProt Q00987, L33E).
T1 construct: having Mdm2 amino acids at positions 25 to 108
Nature of the assay: Mdm2/p53 binding assay (HTRF, His-p53 / GST-Mdm2). The note with it: His-p53 (aa 1-132) and GST-Mdm2 (aa 25-108, L33E), 6.25 nM each; 25° C., 1 hour. The method, then: Next, a test compound was diluted with protein buffer solution containing 10% DMSO, and this test compound dilution was added in an amount of 4 μL/well to the plate.
These dilutions were added in an amount of 8 μL/well (total reaction solution volume: 20 μl/well). Then, the plate was left at 25° C. for 1 hour.
C (correction factor)=(A−BI)/D
The R value calculated from the well supplemented with His-p53, GST-Mdm2, the test compound, and each antibody was defined as R (sample). The R value calculated from the well supplemented with His-p53, GST-Mdm2, and each antibody but without the test compound was defined as R (control). The R value calculated from the well supplemented with GST-Mdm2, the test compound, and each antibody but without His-p53 was defined as R (background). T/C was calculated from the formula shown below. An IC50 value for Mdm2/p53 binding was calculated by sigmoid fitting using Prism (GraphPad Software).
T/C=(R (sample)−R (background))/(R (control)−R (background))
On the technique in general: Time-resolved FRET reads energy transfer from a long-lived donor to a nearby acceptor.

T1 sequence (Q00987 25-108 L33E, species assumed): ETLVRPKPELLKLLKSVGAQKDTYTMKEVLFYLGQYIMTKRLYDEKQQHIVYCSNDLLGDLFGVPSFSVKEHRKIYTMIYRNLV

Regarding `CC(C)C1=C(C(=O)N2[C@@H](C)CC[C@H]2C(=O)N(C)C)SC2=N[C@@](C)(c3ccc(Cl)cc3)[C@@H](c3ccc(Cl)cc3)N21` [Example 112, (5S)-1-{[(5R,6S)-5,6-Bis(4-chlorophenyl)-3-isopropyl-6-methyl-5,6-dihydroimidazo[2,1-b][1,3]thiazol-2-yl]carbonyl}-N,N,5-trimethyl-L-prolinamide], the GI50 in assay [1] (Homo sapiens) came out at 1380 nM; in assay [2] (Homo sapiens), 40700 nM.
`CC(C)C1=C(C(=O)N2CCC[C@H]2C(=O)N2CCOCC2)SC2=N[C@@](C)(c3ccc(Cl)nc3)[C@@H](c3ccc(Cl)cc3)N21` (single isomer, unassigned; isomer b) [Example 97 (Isomer B)]: the IC50 on Mdm2/p53 binding was 10 nM. For the same compound, the values for the GI50 in assay [1] and in assay [2] were 2810 nM and more than 50000 nM, respectively.
The compound `CC(=O)N(C)[C@@H](C)CN(C)C(=O)[C@@H]1CCCN1C(=O)C1=C(C(C)C)N2C(=N[C@@](C)(c3ccc(Cl)cc3)[C@H]2c2ccc(Cl)cc2)S1` [Example 73, N-{(2S)-2-[Acetyl(methyl)amino]propyl}-1-{[(5R,6S)-5,6-bis(4-chlorophenyl)-3-isopropyl-6-methyl-5,6-dihydroimidazo[2,1-b][1,3]thiazol-2-yl]carbonyl}-N-methyl-L-prolinamide] came in with a half-maximal inhibitory concentration (IC50) on Mdm2/p53 binding of 18 nM. Also, the GI50 is 1750 nM in assay [1] (Homo sapiens) and more than 50000 nM in assay [2] (Homo sapiens).

For orientation: GI50 means the concentration at which growth is held to half of that of the control. Low readings indicate greater sensitivity of the cells, high ones lower sensitivity of the cells. What is called IC50 is the midpoint of a concentration-inhibition curve. Lower therefore signals inhibition by little substance.
